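Results reflect a 48-hour exposure of cells in 96-well plates to compound at five concentrations. GI50 is the concentration that inhibits growth by half. TGI is the concentration that stops growth completely.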
Tests used:
Assay in all cases: growth of human tumour cells (NCI), 48 h
786-0 renal = test system: 786-0 renal
A498 renal = test system: A498 renal
A549 NSCLC = test system: A549 NSCLC
ACHN renal = test system: ACHN renal
BT-549 breast = test system: BT-549 breast
CAKI-1 renal = test system: CAKI-1 renal
CCRF-CEM leukemia = test system: CCRF-CEM leukemia
COLO 205 colon = test system: COLO 205 colon
DU-145 prostate = test system: DU-145 prostate
HCC-2998 colon = test system: HCC-2998 colon
HCT-116 colon = test system: HCT-116 colon
HCT-15 colon = test system: HCT-15 colon
HL-60(TB) leukemia = test system: HL-60(TB) leukemia
HOP-62 NSCLC = test system: HOP-62 NSCLC
HOP-92 NSCLC = test system: HOP-92 NSCLC
HS 578T breast = test system: HS 578T breast
HT29 colon = test system: HT29 colon
IGROV1 ovarian = test system: IGROV1 ovarian
K-562 leukemia = test system: K-562 leukemia
KM12 colon = test system: KM12 colon
LOX IMVI melanoma = test system: LOX IMVI melanoma
M14 melanoma = test system: M14 melanoma
MALME-3M melanoma = test system: MALME-3M melanoma
MCF7 breast = test system: MCF7 breast
MDA-MB-231 breast = test system: MDA-MB-231 breast
MDA-MB-435 = test system: MDA-MB-435
MOLT-4 leukemia = test system: MOLT-4 leukemia
NCI-H226 lung = test system: NCI-H226 lung
NCI-H23 lung = test system: NCI-H23 lung
NCI-H460 lung = test system: NCI-H460 lung
NCI-H522 lung = test system: NCI-H522 lung
NCI/ADR-RES ovarian = test system: NCI/ADR-RES ovarian
OVCAR-3 ovarian = test system: OVCAR-3 ovarian
OVCAR-4 ovarian = test system: OVCAR-4 ovarian
OVCAR-5 ovarian = test system: OVCAR-5 ovarian
OVCAR-8 ovarian = test system: OVCAR-8 ovarian
PC-3 prostate = test system: PC-3 prostate
RPMI-8226 leukemia = test system: RPMI-8226 leukemia
RXF 393 renal = test system: RXF 393 renal
SF-268 CNS = test system: SF-268 CNS
SF-295 CNS = test system: SF-295 CNS
SF-539 CNS = test system: SF-539 CNS
SK-MEL-2 melanoma = test system: SK-MEL-2 melanoma
SK-MEL-28 melanoma = test system: SK-MEL-28 melanoma
SK-MEL-5 melanoma = test system: SK-MEL-5 melanoma
SK-OV-3 ovarian = test system: SK-OV-3 ovarian
SN12C renal = test system: SN12C renal
SNB-19 CNS = test system: SNB-19 CNS
SNB-75 CNS = test system: SNB-75 CNS
SR leukemia = test system: SR leukemia
SW-620 colon = test system: SW-620 colon
T-47D breast = test system: T-47D breast
TK-10 renal = test system: TK-10 renal
U251 CNS = test system: U251 CNS
UACC-257 melanoma = test system: UACC-257 melanoma
UACC-62 melanoma = test system: UACC-62 melanoma
UO-31 renal = test system: UO-31 renal

## CS(=O)(=O)Nc1ccc(Nc2c3ccccc3nc3cc([N+](=O)[O-])ccc23)cc1
786-0 renal
  GI50: 1.39 µM
  TGI: 10.6 µM
A498 renal
  GI50: 1.28 µM
  TGI: 12.5 µM
A549 NSCLC
  GI50: 0.317 µM
  TGI: 12 µM
ACHN renal
  GI50: 1.42 µM
  TGI: 6.74 µM
BT-549 breast
  GI50: 2.29 µM
  TGI: 9.32 µM
CAKI-1 renal
  GI50: 2.01 µM
  TGI: 7.43 µM
CCRF-CEM leukemia
  GI50: 0.352 µM
  TGI: 2.79 µM
COLO 205 colon
  GI50: 1.43 µM
  TGI: 6.06 µM
DU-145 prostate
  GI50: 0.296 µM
  TGI: 6.5 µM
HCC-2998 colon
  GI50: 1.62 µM
  TGI: 4.24 µM
HCT-116 colon
  GI50: 1.1 µM
  TGI: 6.16 µM
HCT-15 colon
  GI50: 1.38 µM
  TGI: 4.01 µM
HL-60(TB) leukemia
  GI50: 1.69 µM
  TGI: 5.88 µM
HOP-62 NSCLC
  GI50: 0.399 µM
  TGI: 3.79 µM
HOP-92 NSCLC
  GI50: 0.59 µM
  TGI: 3.74 µM
HS 578T breast
  GI50: 2.42 µM
  TGI: 13.4 µM
HT29 colon
  GI50: 2.14 µM
  TGI: 6.13 µM
IGROV1 ovarian
  GI50: 1.63 µM
  TGI: 5.17 µM
K-562 leukemia
  GI50: 1.31 µM
  TGI: 6.96 µM
KM12 colon
  GI50: 0.854 µM
  TGI: 3.76 µM
LOX IMVI melanoma
  GI50: 0.922 µM
  TGI: 2.78 µM
M14 melanoma
  GI50: 1.42 µM
  TGI: 5.81 µM
MALME-3M melanoma
  GI50: 1.44 µM
  TGI: 4.08 µM
MCF7 breast
  GI50: 0.0511 µM
  TGI: 2.72 µM
MDA-MB-231 breast
  GI50: 2.1 µM
  TGI: 6.1 µM
MDA-MB-435
  GI50: 3.32 µM
  TGI: 9.06 µM
MOLT-4 leukemia
  GI50: 0.235 µM
  TGI: 1.19 µM
NCI-H226 lung
  GI50: 1.26 µM
  TGI: 6.95 µM
NCI-H23 lung
  GI50: 1.69 µM
  TGI: 5.47 µM
NCI-H460 lung
  GI50: 0.041 µM
  TGI: 2.75 µM
NCI-H522 lung
  GI50: 1.27 µM
  TGI: 2.8 µM
NCI/ADR-RES ovarian
  GI50: 10 µM
  TGI: 26.5 µM
OVCAR-3 ovarian
  GI50: 2.05 µM
  TGI: 5.87 µM
OVCAR-4 ovarian
  GI50: 2.9 µM
  TGI: 10.4 µM
OVCAR-5 ovarian
  GI50: 7.94 µM
  TGI: 23.1 µM
OVCAR-8 ovarian
  GI50: 1.95 µM
  TGI: 9.53 µM
PC-3 prostate
  GI50: 1.59 µM
  TGI: 11.8 µM
RPMI-8226 leukemia
  GI50: 0.737 µM
  TGI: 4.31 µM
RXF 393 renal
  GI50: 1.89 µM
  TGI: 4.86 µM
SF-268 CNS
  GI50: 0.615 µM
  TGI: 7.03 µM
SF-295 CNS
  GI50: 1.42 µM
  TGI: 7.77 µM
SF-539 CNS
  GI50: 2.23 µM
  TGI: 13 µM
SK-MEL-2 melanoma
  GI50: 3.46 µM
  TGI: 8.85 µM
SK-MEL-28 melanoma
  GI50: 2.45 µM
  TGI: 7.76 µM
SK-MEL-5 melanoma
  GI50: 1.1 µM
  TGI: 4.37 µM
SK-OV-3 ovarian
  GI50: 3.5 µM
  TGI: 15.1 µM
SN12C renal
  GI50: 0.807 µM
  TGI: 8.43 µM
SNB-19 CNS
  GI50: 1.61 µM
  TGI: 14.9 µM
SNB-75 CNS
  GI50: 1.72 µM
  TGI: 11.8 µM
SR leukemia
  GI50: 0.0837 µM
  TGI: 3.16 µM
SW-620 colon
  GI50: 1.09 µM
  TGI: 6 µM
T-47D breast
  GI50: 0.107 µM
  TGI: 2.23 µM
TK-10 renal
  GI50: 3.38 µM
  TGI: 11.9 µM
U251 CNS
  GI50: 0.911 µM
  TGI: 11.3 µM
UACC-257 melanoma
  GI50: 1.82 µM
  TGI: 6.44 µM
UACC-62 melanoma
  GI50: 1.32 µM
  TGI: 6.31 µM
UO-31 renal
  GI50: 2.39 µM
  TGI: 13.6 µM

## CCN(Cc1cccnc1)c1ccc(CO)c(Cl)c1
786-0 renal
  GI50: > 45.5 µM
  TGI: > 100 µM
A498 renal
  GI50: 0.0797 µM
  TGI: 0.236 µM
A549 NSCLC
  GI50: 5.73 µM
  TGI: > 75.8 µM
ACHN renal
  GI50: 97.7 µM
  TGI: > 100 µM
BT-549 breast
  GI50: > 94.3 µM
  TGI: > 100 µM
CAKI-1 renal
  GI50: 22.5 µM
  TGI: > 100 µM
CCRF-CEM leukemia
  GI50: > 96 µM
  TGI: > 100 µM
COLO 205 colon
  GI50: 1.42 µM
  TGI: 5.33 µM
DU-145 prostate
  GI50: > 81.3 µM
  TGI: > 100 µM
HCC-2998 colon
  GI50: 10.4 µM
  TGI: > 100 µM
HCT-116 colon
  GI50: 0.298 µM
  TGI: > 100 µM
HCT-15 colon
  GI50: > 88.8 µM
  TGI: > 100 µM
HL-60(TB) leukemia
  GI50: 22.6 µM
  TGI: > 100 µM
HOP-62 NSCLC
  GI50: 7.3 µM
  TGI: > 100 µM
HOP-92 NSCLC
  GI50: 3.21 µM
  TGI: 66.4 µM
HS 578T breast
  GI50: > 100 µM
  TGI: > 100 µM
HT29 colon
  GI50: 4.67 µM
  TGI: > 100 µM
IGROV1 ovarian
  GI50: 0.241 µM
  TGI: 1.12 µM
K-562 leukemia
  GI50: 5.58 µM
  TGI: > 100 µM
KM12 colon
  GI50: > 100 µM
  TGI: > 100 µM
LOX IMVI melanoma
  GI50: > 100 µM
  TGI: > 100 µM
M14 melanoma
  GI50: > 100 µM
  TGI: > 100 µM
MALME-3M melanoma
  GI50: > 100 µM
  TGI: > 100 µM
MCF7 breast
  GI50: 0.459 µM
  TGI: > 100 µM
MDA-MB-231 breast
  GI50: > 95.8 µM
  TGI: > 100 µM
MDA-MB-435
  GI50: > 100 µM
  TGI: > 100 µM
MOLT-4 leukemia
  GI50: > 94.9 µM
  TGI: > 100 µM
NCI-H226 lung
  GI50: 0.0885 µM
  TGI: 0.269 µM
NCI-H23 lung
  GI50: 45 µM
  TGI: > 100 µM
NCI-H460 lung
  GI50: 0.555 µM
  TGI: 8.66 µM
NCI-H522 lung
  GI50: > 100 µM
  TGI: > 100 µM
NCI/ADR-RES ovarian
  GI50: 36.5 µM
  TGI: > 100 µM
OVCAR-3 ovarian
  GI50: 1.13 µM
  TGI: 5.36 µM
OVCAR-4 ovarian
  GI50: 0.433 µM
  TGI: 4.63 µM
OVCAR-5 ovarian
  GI50: 0.244 µM
  TGI: 0.915 µM
OVCAR-8 ovarian
  GI50: 34.9 µM
  TGI: > 100 µM
PC-3 prostate
  GI50: 58.4 µM
  TGI: > 100 µM
RPMI-8226 leukemia
  GI50: 11.1 µM
  TGI: > 100 µM
RXF 393 renal
  TGI: > 100 µM
SF-268 CNS
  GI50: > 100 µM
  TGI: > 100 µM
SF-295 CNS
  GI50: 1.06 µM
  TGI: > 100 µM
SF-539 CNS
  GI50: > 100 µM
  TGI: > 100 µM
SK-MEL-2 melanoma
  GI50: > 37 µM
  TGI: > 100 µM
SK-MEL-28 melanoma
  GI50: > 100 µM
  TGI: > 100 µM
SK-MEL-5 melanoma
  GI50: 15.1 µM
  TGI: > 60.2 µM
SK-OV-3 ovarian
  GI50: 23.5 µM
  TGI: > 100 µM
SN12C renal
  GI50: > 87.5 µM
  TGI: > 100 µM
SNB-19 CNS
  GI50: > 100 µM
  TGI: > 100 µM
SNB-75 CNS
  GI50: 65.9 µM
  TGI: > 100 µM
SR leukemia
  GI50: > 100 µM
  TGI: > 100 µM
SW-620 colon
  GI50: 3.66 µM
  TGI: > 100 µM
T-47D breast
  GI50: 0.269 µM
  TGI: 1.54 µM
TK-10 renal
  GI50: 0.12 µM
  TGI: 0.333 µM
U251 CNS
  GI50: 3.75 µM
  TGI: > 100 µM
UACC-257 melanoma
  GI50: 0.195 µM
  TGI: 0.621 µM
UACC-62 melanoma
  GI50: 0.289 µM
  TGI: 2.05 µM
UO-31 renal
  GI50: 20 µM
  TGI: > 100 µM
